Data taken from BigSolDB 2.1.

O=C(O)c1cc([N+](=O)[O-])cc([N+](=O)[O-])c1O
solubility (mole fraction)
Details	278.15 K	283.15 K	288.15 K	293.15 K	298.15 K	303.15 K	308.15 K	313.15 K	318.15 K	323.15 K
in 1,4-dioxane	–	–	0.044	0.0495	0.0554	0.0622	0.0695	0.0778	0.0877	0.0994
in DMF	0.0853	0.0951	0.107	0.119	0.135	0.152	0.171	0.19	0.214	0.241
in DMSO	–	–	–	0.0749	0.0869	0.0999	0.114	0.13	0.149	0.172
in NMP	0.0924	0.103	0.116	0.13	0.146	0.166	0.185	0.207	0.234	0.264
in acetonitrile	0.0108	0.0125	0.0149	0.0177	0.0209	0.0248	0.029	0.0349	0.0411	0.0485
in cyclohexane	–	0.00292	0.0036	0.00449	0.00558	0.00686	0.00836	0.0104	0.0128	0.0156
in ethanol	0.0465	0.0518	0.0582	0.0659	0.0756	0.0862	0.0977	0.11	0.124	0.14
in ethyl acetate	0.046	0.0501	0.0554	0.0619	0.0687	0.0771	0.0858	0.0966	0.109	0.122
in ethylene glycol	0.0245	0.0277	0.0316	0.0365	0.0415	0.0476	0.054	0.062	0.0709	0.082
in isobutanol	0.0139	0.0161	0.0198	0.0244	0.0295	0.0358	0.0439	0.0506	0.0589	0.0712
in isopropanol	0.0262	0.03	0.0348	0.0402	0.0463	0.053	0.0608	0.0702	0.0808	0.0944
in n-butanol	0.0116	0.0141	0.0172	0.0199	0.024	0.0301	0.0345	0.0424	0.049	0.0592
in n-propanol	0.0364	0.0403	0.0456	0.0521	0.0597	0.068	0.0769	0.0866	0.0972	0.111
in water	0.000646	0.000779	0.000964	0.0012	0.00145	0.00171	0.00198	0.00245	0.00301	0.00381
